In general, pIC50 refers to the IC50 on a negative log10 scale, so that one unit is a factor of ten. Low values mean a large IC50, high ones a small IC50.

pIC50: −log10 of the molar value.

Here are results for 13 compounds from patent US8436043B2 (Takeda Pharmaceutical Company Limited, priority 2008, dated 2013).

The first assay deals with T1, human glucagon receptor (Homo sapiens, UniProt P47871).
T1 construct: made in house; host or cells: FreeStyle CHO cells, transient transfection with pMSRαneo/hGCGR; membrane fraction (35,000 rpm pellet)
T1 sequence (P47871 26-477): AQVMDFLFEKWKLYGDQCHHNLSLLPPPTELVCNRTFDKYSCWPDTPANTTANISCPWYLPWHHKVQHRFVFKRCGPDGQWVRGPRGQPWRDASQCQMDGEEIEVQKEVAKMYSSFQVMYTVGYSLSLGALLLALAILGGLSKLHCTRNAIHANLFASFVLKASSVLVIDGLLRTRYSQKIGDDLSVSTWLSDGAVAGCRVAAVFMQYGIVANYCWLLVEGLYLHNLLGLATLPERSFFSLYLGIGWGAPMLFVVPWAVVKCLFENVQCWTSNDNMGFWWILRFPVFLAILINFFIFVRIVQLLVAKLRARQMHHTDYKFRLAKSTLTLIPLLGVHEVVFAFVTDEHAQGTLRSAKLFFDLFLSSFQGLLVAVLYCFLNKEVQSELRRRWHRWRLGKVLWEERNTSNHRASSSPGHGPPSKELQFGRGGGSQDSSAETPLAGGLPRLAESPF
Briefly: Glucagon binding inhibitory activity ([125I]-glucagon binding to glucagon receptor membrane protein). Conditions: human glucagon receptor membrane protein, [125I]-glucagon, 90 min room temperature. In outline:
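Receptor source was a membrane fraction of transiently transfected CHO cells bearing human receptor; 90 min room-temperature binding, filtration harvest, scintillation counting.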
Consider `Cc1c(C(Nc2ccc(C(=O)NCCC(=O)O)cc2)C2CCCCC2)oc2ccccc12` (centres unmarked) [Example A17, 3-{[(4-{[cyclohexyl(3-methyl-1-benzofuran-2-yl)methyl]amino}phenyl)carbonyl]amino}propanoic acid], for which the pIC50 was 6.64.

Still in this assay, the particulars now being: test compound 10 μM; 0.4% DMSO = 0%, non-labeled glucagon 1 μM = 100%; read-out: inhibitory rate (%) at 10 μM.
In the case of `Cc1c(C(Nc2ccc(C(=O)N(C)CCC(=O)O)cc2)C2CCCCC2)oc2ccccc12` (centres unmarked) [Example A16, 3-{[(4-{[cyclohexyl(3-methyl-1-benzofuran-2-yl)methyl]amino}phenyl)carbonyl](methyl)amino}propanoic acid], the inhibition at 10 µM was 74%.
Regarding `Cc1c(C(Nc2ccc(C(=O)NCCC(=O)O)cc2)C2CCCCC2)oc2ccccc12` (centres unmarked) [Example A17, 3-{[(4-{[cyclohexyl(3-methyl-1-benzofuran-2-yl)methyl]amino}phenyl)carbonyl]amino}propanoic acid], the inhibition at 10 µM was 72%.
Take `O=C(O)CCNC(=O)c1ccc(NC(c2nn(C3CCCCC3)c3ccccc23)C2CCCCC2)cc1` (centres unmarked) [Example A19, 3-{[(4-{[cyclohexyl(1-cyclohexyl-1H-indazol-3-yl)methyl]amino}phenyl)carbonyl]amino}propanoic acid]: the inhibition at 10 µM was 71%.
Still for that read-out and setting: the same measure for `COc1cccc2cc(C(Nc3ccc(C(=O)NCCC(=O)O)cc3)C3CCCCC3)oc12` (centres unmarked) [Example A20, 3-{[(4-{[cyclohexyl(7-methoxy-1-benzofuran-2-yl)methyl]amino}phenyl)carbonyl]amino}propanoic acid]: 72%; for `COc1cccc2cc(C(Nc3ccc(C(=O)N(C)CCC(=O)O)cc3)C3CCCCC3)oc12` (centres unmarked) [Example A21, 3-{[(4-{[cyclohexyl(7-methoxy-1-benzofuran-2-yl)methyl]amino}phenyl)carbonyl](methyl)amino}propanoic acid]: 62%.
The same measure, in the same setting: the figure for `COc1ccc2oc(C(Nc3ccc(C(=O)NCCC(=O)O)cc3)C3CCCCC3)cc2c1` (centres unmarked) [Example A22, 3-{[(4-{[cyclohexyl(5-methoxy-1-benzofuran-2-yl)methyl]amino}phenyl)carbonyl]amino}propanoic acid] is 66%; for `Cc1c(C(CC(C)C)Nc2ccc(C(=O)NCCC(=O)O)cc2)oc2ccccc12` (centres unmarked) [Example A23, 3-{[(4-{[3-methyl-1-(3-methyl-1-benzofuran-2-yl)butyl]amino}phenyl)carbonyl]amino}propanoic acid] it is 77%.
On the same count and under the same terms, the same measure for `Cc1c(C(CC(C)C)Nc2ccc(C(=O)N(C)CCC(=O)O)cc2)oc2ccccc12` (centres unmarked) [Example A24, 3-{methyl[(4-{[3-methyl-1-(3-methyl-1-benzofuran-2-yl)butyl]amino}phenyl)carbonyl]amino}propanoic acid]: 70%; for `COc1ccc2oc(C(Nc3ccc(C(=O)N(C)CCC(=O)O)cc3)C3CCCCC3)cc2c1` (centres unmarked) [Example A25, 3-{[(4-{[cyclohexyl(5-methoxy-1-benzofuran-2-yl)methyl]amino}phenyl)carbonyl](methyl)amino}propanoic acid]: 60%; for `CCc1oc2ccccc2c1C(Nc1ccc(C(=O)N(C)CCC(=O)O)cc1)C1CCCCC1` (centres unmarked) [Example A26, 3-{[(4-{[cyclohexyl(2-ethyl-1-benzofuran-3-yl)methyl]amino}phenyl)carbonyl](methyl)amino}propanoic acid]: 64%.
Take `COc1ccc2oc(C(Nc3ccc(C(=O)N(C)CCC(=O)O)cc3)C3CCCCC3)c(C)c2c1` (centres unmarked) [Example A27, 3-{[(4-{[cyclohexyl(5-methoxy-3-methyl-1-benzofuran-2-yl)methyl]amino}phenyl)carbonyl](methyl)amino}propanoic acid]: the inhibition at 10 µM worked out at 80%.
Same read-out and setting: the same measure for `COc1ccc2cc(C(Nc3ccc(C(=O)N(C)CCC(=O)O)cc3)C3CCCCC3)oc2c1` (centres unmarked) [Example A28, 3-{[(4-{[cyclohexyl(6-methoxy-1-benzofuran-2-yl)methyl]amino}phenyl)carbonyl](methyl)amino}propanoic acid]: 62%; for `CCc1oc2ccccc2c1C(Nc1ccc(C(=O)NCCC(=O)O)cc1)C1CCCCC1` (centres unmarked) [Example A29, 3-{[(4-{[cyclohexyl(2-ethyl-1-benzofuran-3-yl)methyl]amino}phenyl)carbonyl]amino}propanoic acid]: 77%.
